From US8343985B2, “Methods for modulating Lyn kinase activity and treating related disorders” (Melior Pharmaceuticals I, Inc., priority 2005, dated 2013)
“Also recorded” adds a separate entry of the source.

Legend:
[1] = system: mouse model of hyperglycemia; experiment: Oral glucose tolerance test in mice (mouse model of hyperglycemia); assay type: in vivo; settings: for blood glucose levels / blood glucose load in mouse model of type II diabetes: mice administered high levels of glucose
Text: Type II diabetes is characterized by high blood glucose levels in the presence of normal amounts of insulin. Animal models of type II diabetes involve administering high levels of glucose and measuring blood glucose levels and the ability of the experimental animal to maintain glucose homeostasis over time. Several pharmacological structural classes can effectively regulate this hyperglycemic response including sulfonylureas, thiazoladinediones (PPARγ agonists; glitazones) or metformin (glucophage). These drug classes are also clinically approved for use in humans. In the current study, we established a mouse model of hyperglycemia by administering high levels of glucose to mice.
Glucose was formulated in water at a concentration of 150 mg/ml and dosed at a volume of 10 ml/kg to produce a dose of 1.5 g/kg. Glucose was measured using the Ascensia II Elite XL glucose monitor (Bayer). Measure glucose by taking a small (2 mm) section off the tip of the tail, bleed onto glucose test strip and measure. Data for each time point analyzed by ANOVA and post-hoc Tukey's test. A p value of less then 0.05 was used to indicate statistical significance.
In study 1, mice were dosed with Compound 102 and glucose as follows:
In study 2, mice were dosed with Compound 102 and glucose as follows.
Study 3 tested Compound 102 and was conducted as follows: […]

[2] = system: Male CD1/ICR mice fed Western Diet; experiment: Western diet study: weight gain, food intake, fat pad weights; assay type: in vivo
Text: Male CD1/ICR mice were obtained from Harlan. The study was started when mice were 8 weeks of age. Prior to initiation of the study mice fasted for 24 hrs. Mice were fed “Western Diet” that was designed to approximate the “typical” human diet of North America and Europe (Research Diets; New Brunswick, N.J.; Western Diet composition). The Western Diet contained greater then 5 times more fat then normal chow. [table] Mice were weighed daily beginning from the start of the 24 hr fasting period. Food intake was monitored continuously. Mice were bled by retroorbital eyebleed on days 7, 14, 21 and 28 after the initiation of the study. On day of REB mice were dosed 1× with full dose 1 hr prior to bleed. Fat pads were dissected at the end of the study (day 31) weighed and frozen. The following fat pads were dissected: brown, inguinal, axial, mesenteric, renal and epidydimal. Data were averaged and analyzed by ANOVA followed by a post-hoc Tukey's test with a p value of less then 0.05 indicating a statistical difference.

leptin = experiment: Leptin levels in Western diet treated animals (ELISA); assay type: in vivo; settings: Western diet mice
Description: Blood from mice that were on western diet (Compound 102) were analyzed for leptin levels. Mice were bled by retroorbital eyebleed on days 7, 14, 21 and 28 after the initiation of the study. On day of REB mice were dosed once with full dose 1 hr prior to bleed. Leptin levels were determined by ELISA (R&D Systems) as per directions. Data are expressed as the average ±SEM. Data were averaged and analyzed by ANOVA followed by a post-hoc Tukey's test with a p value of less then 0.05 indicating a statistical difference.

Db/Db mice [3] = experiment: In vivo Db/Db mouse glucose study
Description: (§1) Db/Db and Db/lean mice were obtained from Harlan at 6 weeks of age. Mice were housed 3 per cage and fed ad libitum normal rodent chow. Mice were kept on a 12 hr Light:dark cycle.
(§2) The study was initiated when mice reached an age of 8 weeks and their baseline blood glucose levels were greater than 200 mg/dl. Compound 102 was formulated in PBS: 2N HCl (99:1) at concentrations of 0.5, 1.5 and 5 mg/ml. Mice were dosed at volumes of 10 ml/kg to produce doses of 5, 15 and 50 mg/kg/dose. Mice were dosed twice per day at an 8 hr interval (8 am and 4 pm) during the light cycle.
For the acute blood glucose measurements, blood glucose levels were measured after the animals received their first dose of Compound 102. Blood glucose levels were measured two hrs after this initial injection.

Db/Db mice [4] = experiment: In vivo Db/Db mouse obesity study
Description: as §1, §2
Mice were administered vehicle or drug (i.e., Compound 102) (5, 15, and 50 mg/kg) twice per day (bid) for the 28 days. Mouse weight and food intake were monitored daily. Food intake is reported as food intake (grams) per mouse per 24 hr period.

Zucker rats = experiment: In vivo Zucker rat glucose study; settings: 30 mg/kg ip, glucose 1.5 g/kg, 30 and 270 minutes
Description: Zucker rats and corresponding lean rats were supplied by Harlan. Rats were fed a normal diet, ad libitum, and kept on a 12 hr light/dark cycle. Rats were housed 3 per cage. At 12 weeks of age, Zucker rats were administered Compound 102 at a concentration of 30 mg/kg (ip). Blood glucose levels were measured 30 minutes after administration. Forty-five minutes after drug administration, animals were administered a glucose solution (1.5 g/kg) by oral gavage. Blood glucose levels were measured every 30 minutes after gavage for 4.5 hrs. There were 3 groups with 3 animals per group: 1) 3 Zucker leans (no drug; no glucose treatment); 2) Zucker vehicle treated group (glucose challenged and 3) Zucker Compound 102 treatment (30 mg/kg); glucose challenged.

Lyn Kinase enzyme = Lyn Kinase enzyme (Homo sapiens, UniProt P07948); experiment: In vitro Lyn kinase enzyme activity; assay type: biochemical; settings: FIG. 12
Chain of Lyn Kinase enzyme (P07948 whole entry): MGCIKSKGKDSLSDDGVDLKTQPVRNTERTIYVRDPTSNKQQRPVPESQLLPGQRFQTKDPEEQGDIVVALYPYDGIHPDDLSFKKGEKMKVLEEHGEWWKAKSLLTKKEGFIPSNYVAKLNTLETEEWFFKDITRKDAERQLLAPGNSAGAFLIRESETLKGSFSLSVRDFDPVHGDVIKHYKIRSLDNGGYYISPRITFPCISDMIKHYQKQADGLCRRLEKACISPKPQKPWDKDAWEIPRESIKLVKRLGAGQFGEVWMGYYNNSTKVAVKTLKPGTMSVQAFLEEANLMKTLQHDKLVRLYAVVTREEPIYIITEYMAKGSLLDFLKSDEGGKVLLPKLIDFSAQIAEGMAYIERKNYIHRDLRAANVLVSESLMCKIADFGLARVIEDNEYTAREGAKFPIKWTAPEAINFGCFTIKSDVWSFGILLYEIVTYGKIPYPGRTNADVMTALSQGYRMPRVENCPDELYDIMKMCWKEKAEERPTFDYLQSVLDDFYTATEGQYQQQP

Db/Db mice [5] = experiment: In vivo Db/Db mouse obesity study; settings: chronic administration to mice
[6] = single dose of 2 or 10 mg/kg, FIG. 3

Cc1cccc(Oc2cnc(=O)[nH]c2)c1 [Compound 102]
blood glucose levels / blood glucose load in mouse model of type II diabetes [1]: effective in reducing blood glucose levels
time after drug administration at which significance was lost ([1]; study 1, single administration, 30 mg/kg): 90 min
normal blood glucose levels (pre-glucose loading) ([1]; study 1, single administration, 30 mg/kg, mice): significantly decreased
blood glucose levels produced by oral glucose administration ([1]; study 1, single administration, 30 mg/kg, oral glucose 1.5 g/kg): significantly attenuated
effect on blood glucose levels ([1]; study 2, increased dosing (four times at 30 minute intervals)): more dramatic effect
food intake [2]: not affected
brown, axial, inguinal, renal and epididymal fat pad increases ([2]; day 31): significantly reduced
weight gain ([2]; highest dose tested (30 mg/kg/day)): significantly reduced; also recorded: significant alteration in weight change
blood leptin levels (leptin): reduced leptin levels to those fed a normal diet
acute blood glucose response upon study initiation and on weekly testing (Db/Db mice [3]; 15 mg/kg and 50 mg/kg dose groups): acute dose response
blood glucose levels following acute administration (Db/Db mice [3]; 2 hrs after first dose): reduce blood glucose levels; also recorded: reduction in glucose levels
blood glucose levels, dose dependence (Db/Db mice [3]; IP twice/day, four weeks): dose dependent effect
animal weight gain, dose dependence (Db/Db mice [4]; Db/Db mice, IP twice/day, four weeks): dose dependent effect
food intake (Db/Db mice [4]; Db/Db mice, bid, 28 days): without affecting food intake
weight gain (Db/Db mice [4]; Db/Db mice, bid, 28 days): significantly lowered; also recorded: reduction in weight gain
defecation (Db/Db mice [4]; chronic administration to mice): defecated normally
food intake compared to vehicle-treated animals (Db/Db mice [4]; chronic administration to mice): normal food intake
hyperactivity (as with amphetamine class of weight-loss drugs) (Db/Db mice [4]; mouse, in vivo): did not display the hyperactivity
blood glucose levels after oral glucose challenge (Zucker rats): reduced blood glucose levels at both time points; also recorded: reduction is blood glucose levels
in vitro activity of Lyn Kinase enzyme (Lyn Kinase enzyme): increased in vitro activity
weight-gain response of animals fed a high fat diet (Db/Db mice [5]): significantly inhibited

O=c1ncc(Oc2cccc(Cl)c2)c[nH]1 [Compound 105]
blood glucose levels / blood glucose load in mouse model of type II diabetes [1]: effective in reducing blood glucose levels
baseline blood glucose levels [1, 6]: significantly depressed
blood glucose levels at all time points after administration [1, 6]: significantly (P<0.05) reduced

CN(C)C(=N)N=C(N)N [metformin, reference compound]
blood glucose levels / blood glucose load in mouse model of type II diabetes [1]: can effectively reduce the blood glucose load
